Measurements taken from article PMC3445516 (PLoS ONE, 2012).
Where two headings read alike, the source gives them in different places.

How the values were obtained:
Experiment in all cases: Ambit kinase profiling, competition binding
[1] = biological target: T1, GAK (Homo sapiens, UniProt O14976)
T1 construct: purchased Ambit Biosciences (KINOMEscan)
T1 sequence (O14976 1-1311): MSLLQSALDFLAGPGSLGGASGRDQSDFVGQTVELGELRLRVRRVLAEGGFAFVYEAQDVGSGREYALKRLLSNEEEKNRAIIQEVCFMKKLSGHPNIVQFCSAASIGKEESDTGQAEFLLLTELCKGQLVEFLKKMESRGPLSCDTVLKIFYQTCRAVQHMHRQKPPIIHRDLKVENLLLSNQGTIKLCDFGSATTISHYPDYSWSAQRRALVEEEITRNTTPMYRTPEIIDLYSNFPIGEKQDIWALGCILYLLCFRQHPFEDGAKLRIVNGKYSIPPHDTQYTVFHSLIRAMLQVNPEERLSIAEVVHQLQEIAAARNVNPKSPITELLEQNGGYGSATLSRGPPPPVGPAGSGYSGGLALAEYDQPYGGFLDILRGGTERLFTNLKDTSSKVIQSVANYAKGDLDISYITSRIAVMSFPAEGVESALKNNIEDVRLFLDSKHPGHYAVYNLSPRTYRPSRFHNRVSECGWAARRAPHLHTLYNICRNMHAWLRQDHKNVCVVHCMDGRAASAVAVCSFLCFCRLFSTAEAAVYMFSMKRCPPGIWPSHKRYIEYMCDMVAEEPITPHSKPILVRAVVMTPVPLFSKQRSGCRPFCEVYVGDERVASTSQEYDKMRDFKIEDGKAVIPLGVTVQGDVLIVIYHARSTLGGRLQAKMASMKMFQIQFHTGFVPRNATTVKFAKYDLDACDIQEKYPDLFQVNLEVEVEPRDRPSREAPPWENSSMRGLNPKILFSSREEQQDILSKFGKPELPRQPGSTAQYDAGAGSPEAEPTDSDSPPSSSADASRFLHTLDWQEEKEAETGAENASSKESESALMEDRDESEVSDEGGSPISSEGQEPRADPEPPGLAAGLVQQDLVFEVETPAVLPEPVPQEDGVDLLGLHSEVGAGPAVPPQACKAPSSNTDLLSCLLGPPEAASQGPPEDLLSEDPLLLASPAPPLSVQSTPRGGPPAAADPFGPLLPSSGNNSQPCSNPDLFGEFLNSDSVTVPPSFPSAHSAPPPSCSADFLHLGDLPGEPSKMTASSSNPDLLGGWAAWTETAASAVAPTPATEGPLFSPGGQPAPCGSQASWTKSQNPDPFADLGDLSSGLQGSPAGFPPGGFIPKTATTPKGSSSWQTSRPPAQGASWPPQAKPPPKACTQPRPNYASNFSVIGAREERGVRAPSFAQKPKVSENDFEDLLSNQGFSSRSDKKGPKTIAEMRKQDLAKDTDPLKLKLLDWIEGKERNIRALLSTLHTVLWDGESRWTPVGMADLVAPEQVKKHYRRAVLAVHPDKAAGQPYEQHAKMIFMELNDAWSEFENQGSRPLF
Experimental: (§1) Also included in the kinase profile are four isoforms of PKC (δ, ε, η, θ) and eight isoforms of CAMKs (CAMKIα, δ, γ; CAMKIIα, β, δ, γ; CAMK4).
(§2) The global kinase profiling experiment was performed by Ambit Biosciences.

[2] = biological target: T2, p38-alpha (Homo sapiens, UniProt Q16539); conditions: for % Competition: 10 µM
T2 construct: purchased Ambit Biosciences (KINOMEscan)
T2 sequence (Q16539 whole entry): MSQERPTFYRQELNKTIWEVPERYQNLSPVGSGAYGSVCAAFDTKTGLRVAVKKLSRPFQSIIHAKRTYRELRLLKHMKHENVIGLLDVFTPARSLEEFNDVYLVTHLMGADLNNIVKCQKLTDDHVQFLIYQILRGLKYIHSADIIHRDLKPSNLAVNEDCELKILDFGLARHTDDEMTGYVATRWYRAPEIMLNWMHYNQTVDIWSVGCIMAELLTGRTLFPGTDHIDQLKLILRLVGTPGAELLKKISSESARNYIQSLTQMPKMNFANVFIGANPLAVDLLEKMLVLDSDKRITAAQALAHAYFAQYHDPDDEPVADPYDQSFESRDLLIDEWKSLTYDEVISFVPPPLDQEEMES
Experimental: as §1, §2

[3] = biological target: T3, JNK2 (Homo sapiens, UniProt P45984); conditions: for % Competition: 10 µM
T3 construct: purchased Ambit Biosciences (KINOMEscan)
T3 sequence (P45984 whole entry): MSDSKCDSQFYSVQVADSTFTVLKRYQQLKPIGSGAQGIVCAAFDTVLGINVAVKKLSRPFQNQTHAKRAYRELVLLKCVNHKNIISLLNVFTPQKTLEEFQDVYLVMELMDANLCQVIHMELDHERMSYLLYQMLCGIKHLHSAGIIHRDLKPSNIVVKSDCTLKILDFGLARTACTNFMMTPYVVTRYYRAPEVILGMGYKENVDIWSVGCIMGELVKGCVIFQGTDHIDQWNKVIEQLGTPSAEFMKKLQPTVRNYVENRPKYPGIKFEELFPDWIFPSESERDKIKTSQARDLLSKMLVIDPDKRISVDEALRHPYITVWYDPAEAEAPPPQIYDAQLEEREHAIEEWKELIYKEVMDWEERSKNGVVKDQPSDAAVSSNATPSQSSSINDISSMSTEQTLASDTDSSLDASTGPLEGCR
Experimental: as §1, §2

[4] = biological target: T4, PLK4 (Homo sapiens, UniProt O00444)
T4 construct: purchased Ambit Biosciences (KINOMEscan)
T4 sequence (O00444 1-970): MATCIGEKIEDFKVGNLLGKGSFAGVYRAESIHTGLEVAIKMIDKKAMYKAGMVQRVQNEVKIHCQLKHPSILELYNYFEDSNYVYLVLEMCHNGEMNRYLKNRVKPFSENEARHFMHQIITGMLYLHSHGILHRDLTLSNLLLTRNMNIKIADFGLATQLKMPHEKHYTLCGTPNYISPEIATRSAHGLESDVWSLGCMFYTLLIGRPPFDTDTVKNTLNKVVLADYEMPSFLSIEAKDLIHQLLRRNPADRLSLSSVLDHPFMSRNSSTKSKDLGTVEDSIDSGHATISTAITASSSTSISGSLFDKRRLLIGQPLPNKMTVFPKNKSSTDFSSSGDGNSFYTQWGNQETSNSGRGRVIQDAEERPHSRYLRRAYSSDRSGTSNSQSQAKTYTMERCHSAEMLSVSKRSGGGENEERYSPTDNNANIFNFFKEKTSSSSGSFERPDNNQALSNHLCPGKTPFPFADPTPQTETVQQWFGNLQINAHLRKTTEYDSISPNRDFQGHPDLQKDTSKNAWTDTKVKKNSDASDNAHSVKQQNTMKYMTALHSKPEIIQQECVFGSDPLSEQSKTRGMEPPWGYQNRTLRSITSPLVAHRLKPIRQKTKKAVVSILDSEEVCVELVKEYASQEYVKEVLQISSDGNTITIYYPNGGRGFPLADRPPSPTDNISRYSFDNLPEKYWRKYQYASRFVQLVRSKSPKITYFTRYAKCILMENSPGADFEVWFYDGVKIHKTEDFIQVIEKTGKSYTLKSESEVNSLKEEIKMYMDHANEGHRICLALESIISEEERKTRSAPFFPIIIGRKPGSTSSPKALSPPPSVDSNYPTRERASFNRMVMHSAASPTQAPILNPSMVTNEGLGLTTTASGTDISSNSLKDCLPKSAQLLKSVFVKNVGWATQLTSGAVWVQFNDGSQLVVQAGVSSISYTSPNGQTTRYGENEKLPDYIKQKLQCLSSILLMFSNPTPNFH
Experimental: as §1, §2

| Compound | inhibition at 10 µM ([1]; GAK, 10 µM, read-out: % Competition) | % Competition [2] | % Competition [3] | inhibition at 10 µM ([4]; PLK4, 10 µM, read-out: % Competition) | inhibition at 10 µM ([1]; read-out: % Competition) | inhibition at 10 µM ([4]; read-out: % Competition) | inhibition at 10 µM ([1]; GAK, compound concentration 10 uM, read-out: Percent Competition) | Percent Competition ([2]; compound concentration 10 uM) | Percent Competition ([3]; compound concentration 10 uM) | inhibition at 10 µM ([4]; PLK4, compound concentration 10 uM, read-out: Percent Competition) |
| --- | --- | --- | --- | --- | --- | --- | --- | --- | --- | --- |
| Fc1ccc(-c2c(-c3ccncc3)[nH]c3nccnc23)cc1 [Compound 122] | 98% | 100% | 100% | 98% |  |  |  |  |  |  |
| CC(O)CNc1cc(-c2[nH]c3cccnc3c2-c2ccc(F)cc2)ccn1 (stereo not drawn) [Compound 140] |  | 100% | 100% |  | 98% | < 50% |  |  |  |  |
| Fc1ccc(-c2c(-c3ccncc3)[nH]c3nccnc23)cc1 [RO1155697-000-005] |  |  |  |  |  |  | 98% | 100% | 100% | 98% |
